Measurements reported in patent US8986733B2, “Materials and methods for nerve repair” (University of Florida Research Foundation, Inc., priority 2001, dated 2015).

What was measured:
rat sciatic nerve [1] = assay: Bilateral sciatic nerve crush injury (axonotmesis), GAP-43 axon scoring; type: in vivo; conditions: 2 days after injury; for axonal regeneration after nerve crush injury (GAP-43 immunoreactivity) vs vehicle: 1 U injected
Method: Surgical procedures for nerve transection and nerve crush experiments. All surgical procedures were performed according to Institutional Animal Care and Use Committee (IACUC) approved protocols. Young adult SPRAGUE DAWLEY rats (HARLAN Indianapolis, Ind.) were deeply anesthetized with xylazine (15 mg/kg, i.m.) followed by ketamine-HCl (110 mg/kg, i.p.). Six animals received bilateral nerve crush injuries. Sciatic nerves were exposed and then crushed with firm pressure for thirty seconds with a DUMONT #5 forceps at a site 4 mm distal to the tendon of the internal obdurator. The crush site was marked with an epineurial suture. In a separate set of experiments, eight rats received bilateral sciatic nerve transection injuries using serrated scissors. The proximal and distal stumps were […] by epineurial neurorrhaphy using 9-0 ETHILON sutures. Fibrin glue (fibrinogen and thrombin) was then applied to stabilize the union. In both injury models, the right sciatic nerves were injected 2-mm distal to the injury with chondroitinase ABC (1 U in 2 μl) (high-purity, protease-free; SIGMA CHEMICAL CO., St. Louis, […].). Left sciatic nerves (with the same injury as the right side) were injected with vehicle alone (0.1% bovine serum albumin in PBS). Muscle incisions were sutured and the skin closed with metal clips. After recovery from the anesthetic, animals were returned to standard housing. Two days (for crush injury) and four days (for transection injury) after surgery, nerves were removed under anesthesia and fixed as described below. One of the eight animals receiving nerve transection and repair was excluded because loss of continuity in one nerve occurred during convalescence.
The hypothesis that chondroitinase treatment improves axonal growth through the site of nerve crush injury was tested. Bilateral axonotmesis was achieved by severely crushing the sciatic nerves while maintaining the continuity of the nerve sheaths. […] Regenerating axons were labeled by GAP-43 immunofluorescence and scored by digital image analysis. […]

rat sciatic nerve [2] = assay: Interpositional acellular nerve grafting, GAP-43 axon scoring; type: in vivo
Text: Preparation of acellular nerve grafts treated with chondroitinase. Adult (180-200 g) female SPRAGUE DAWLEY rats (HARLAN, Indianapolis, Ind.) were used as nerve donors and recipient hosts. Donor rats were anesthetized with halothane and decapitated. Sciatic nerves were exposed through a gluteal muscle-splitting incision and isolated free of underlying fascia. A 15-mm nerve segment was excised rostral to the bifurcation into common peroneal and tibial nerves. The segments were rinsed with cold sterile Ringer's solution, stabilized by pinning the ends to a thin plastic support, and transferred to a cryogenic vial. The vials were submerged in liquid nitrogen for 2 minutes and then transferred to a 37° C. water bath for 2 minutes. This freeze/thaw cycle was repeated, yielding acellular nerve grafts that were then stored in liquid nitrogen. On the day before grafting, the nerve grafts were warmed to room temperature and incubated in 100 μl phosphate buffered saline pH 7.4 (PBS) containing 2 units/ml chondroitinase ABC (SIGMA, St. Louis, Mo.) or in PBS (vehicle) only for 16 hours at 37° C. The grafts were rinsed twice with Ringer's and kept on ice prior to use. The chondroitinase ABC preparation was highly purified and stated by the manufacturer to be essentially free of protease activity.
Interpositional nerve grafting for chondroitinase experiments. Twelve rats received bilateral acellular nerve grafts, one chondroitinase-treated and one vehicle-treated graft. Host rats were deeply anesthetized using xylazine (15 mg/kg, i.m.) and ketamine (110 mg/kg, i.p.). The sciatic nerve was exposed and supported by a plastic insert placed between the nerve and underlying tissue. The region of nerve halfway between the sciatic notch and bifurcation was first coated with fibrin glue. […]
The main grafts were sectioned serially on the transverse plane in recorded measure to assess the extent of axonal growth by microscopy. […] GAP-43-positive axon profiles were scored using IMAGE-PRO PLUS software (MEDIA CYBERNETICS, Silver Springs, Md.). […]

In the case of chondroitinase ABC, the “latency or rate of axonal regeneration after crush” value (rat sciatic nerve [1]) is reported as “no indication that the latency or rate of axonal regeneration was altered”, the “axonal regeneration after nerve crush injury (GAP-43 immunoreactivity) vs vehicle” value (rat sciatic nerve [1]) is reported as “no significant difference” and the “axonal regeneration after nerve crush injury (GAP-43 immunoreactivity) vs vehicle” value (rat sciatic nerve [1]; listed as chondroitinase) is reported as “not significantly effected”. For the same substance, the “latency of axonal regeneration into acellular nerve grafts” value (rat sciatic nerve [2]; 4-day and 8-day grafts) was “decreases the latency”, the “axonal penetration vs control grafts” value (rat sciatic nerve [2]; 4-day grafts, 0.3 mm from the host-graft interface) was “five-fold greater” and the “average number of axons (GAP-43-immunopositive profiles) entering grafts vs control grafts” value (rat sciatic nerve [2]; 8-day grafts, en bloc treated acellular syngrafts) was “more than three-fold greater”.
